Results taken from paper PMC9147192, “Small Molecule Arranged Thermal Proximity Coaggregation (smarTPCA)—A Novel Approach to Characterize Protein–Protein Interactions in Living Cells by Similar Isothermal Dose–Responses” (International Journal of Molecular Sciences, 2022).

What was measured:
MYLK = MYLK (Homo sapiens, UniProt Q15746); assay: TPP-CCR in living HL-60 cells
USP24 = USP24 (Homo sapiens, UniProt Q9UPU5); assay: TPP-CCR in living HL-60 cells
MTMR1 = MTMR1 (Homo sapiens, UniProt Q13613); assay: TPP-CCR in living HL-60 cells
MAPKAPK2p = assay: CETSA in living HL-60 cells, immunoblot; assay type: cell-based, Homo sapiens
Description: First, we conducted CETSA experiments according to Jafari et al.. […] Subsequent SDS-PAGE and immunoblotting were performed according to optimized conditions allowing for parallel detection of MAPK14, MAPKAPK2, MAPKAPK3, and GSK-3α (Supplementary Figure S1).
HL-60 cells (ATCC No. CCL-240) were expanded to about […] in 80 mL cell culture medium (RPMI-1640 supplemented with 10% (v/v) FBS, 1% (v/v) penicillin-streptomycin and 1% (v/v) L-glutamine solution) and divided into four aliquots (20 mL each, 25 million cells per flask). […] The same volume of DMSO was added to the remaining aliquot serving as the vehicle (DMSO) control. After incubation (1 h, 37 °C, 5% CO2, in cell culture CO2 incubator), the cell suspensions were transferred into 50 mL conical tubes, cell number and viability were determined, and after centrifugation (300 relative centrifugal force (rcf), 3 min, room temperature (r.t.)), the supernatants were completely removed and discarded. The cells were washed using 20 mL Dulbecco’s phosphate-buffered saline (PBS), respectively, by resuspension and centrifugation (300 rcf, 3 min, r.t.). After the complete removal of the supernatants, the cells were transferred into pre-weighed 2 mL Eppendorf tubes using 0.5 mL PBS (r.t.), respectively, for resuspending. After centrifugation (300 rcf, 3 min, r.t.) and removing as much as possible of the supernatants, the cell wet weights were determined.
The suspensions were shortly centrifuged (1 s or less) using a benchtop centrifuge that was equipped with an inset for PCR tubes to release trapped air and to achieve an even liquid level without pelleting the cells. The 100 µL cell suspensions were then temperature treated by a 7 min pre-incubation at r.t., a 3 min incubation at the following different temperatures in the PCR cycler (DNA Engine Tetrad 2, lid temperature 70 °C, gradient block 1: 36–55 °C, gradient block 2: 48–67 °C), and a 3 min post-incubation at r.t. in a metal heating block for uniform heat dissipation.
The cells were lysed by four freeze/thaw cycles consisting of thawing the samples (in a heat block set to 25 °C and shaking at 1250 rpm) accompanied by mixing them several times by inversion and then shock freezing them again in liquid nitrogen. […]
For each sample set comprising either ten temperature range samples or ten compound concentration range samples, the same volume of the cell extracts containing the fraction of soluble, non-denatured proteins was used for further analysis. This volume was determined using the two lowest temperature samples (36.5 and 41.2 °C) per temperature range sample set so that they contained an average of 5 µg total protein (e.g., 2.78 µL for all temperature range samples of a sample set whose two lowest temperature samples contain an average of 1.8 mg/mL protein). […]

MAPK3 = target: T1, MAPK3 (Homo sapiens, UniProt P27361); assay: TPP-CCR in living HL-60 cells; assay type: cell-based
T1 construct: endogenous in cells; host or cells: HL-60 (ATCC CCL-240)
Text: (§1) Therefore, we performed TPP with compound concentration range (TPP-CCR) experiments according to published procedures. In brief, after preparing tryptic peptides from the non-denatured protein fractions (used for immunoblotting in the previous sections) applying the SP3 method, the peptides were labeled using TMT10plex, coding for inhibitor concentration, and the samples belonging to a TMT set were combined, offline high-pH fractionated, and analyzed by MS.
(§2) HL-60 cells were expanded as described above for CETSA and TPP-TR to 1.25 million cells per milliliter. […] A number of 2.5 million cells in 2 mL of medium were added to each tube and incubated (1 h, 37 °C). […]
(§3) For each sample set comprising ten compound concentration range samples, a same volume of the cell extracts containing the fraction of soluble, non-denatured proteins, corresponding to an average of 5 µg total protein, was used for further analysis. The calculated volume was respectively transferred into PCR tubes of a tube strip and supplemented with SDS sample buffer without DTT and bromophenol blue (final concentrations: 7.5% glycerol, 3% SDS, 37.5 mM Tris/HCl pH 7.0) and ddH2O to a final volume of 10 µL, respectively. […]

MAPK8 = tested on: MAPK8; parameters: method as in PMID 23398362; details: cited from earlier work
C14orf166 = C14orf166 (Homo sapiens, UniProt Q9Y224); details: living HL-60 cells, […] °C, TMT-MS
Text: as §1, §2, §3

MAPKAPK2 [1] = tested on: MAPKAPK2; parameters: method as in PMID 23398362; details: cited from earlier work
MAPKAPK2 [2] = tested on: MAPKAPK2; parameters: method as in PMID 22037378; details: cited from earlier work
[3] = living HL-60 cells, […] °C, TMT-MS
[4] = living HL-60 cells, 20 µM inhibitor

T1 sequence (P27361 whole entry): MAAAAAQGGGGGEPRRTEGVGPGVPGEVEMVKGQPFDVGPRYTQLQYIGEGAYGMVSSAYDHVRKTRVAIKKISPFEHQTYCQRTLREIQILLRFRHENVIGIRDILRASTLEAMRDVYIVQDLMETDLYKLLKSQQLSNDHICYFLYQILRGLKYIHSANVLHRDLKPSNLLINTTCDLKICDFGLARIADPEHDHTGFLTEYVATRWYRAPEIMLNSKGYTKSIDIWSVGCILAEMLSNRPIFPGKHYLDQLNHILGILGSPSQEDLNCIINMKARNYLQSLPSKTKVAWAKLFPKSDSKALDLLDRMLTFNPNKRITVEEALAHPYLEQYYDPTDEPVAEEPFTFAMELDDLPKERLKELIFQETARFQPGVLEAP
USP24, sequence (Q9UPU5 whole entry): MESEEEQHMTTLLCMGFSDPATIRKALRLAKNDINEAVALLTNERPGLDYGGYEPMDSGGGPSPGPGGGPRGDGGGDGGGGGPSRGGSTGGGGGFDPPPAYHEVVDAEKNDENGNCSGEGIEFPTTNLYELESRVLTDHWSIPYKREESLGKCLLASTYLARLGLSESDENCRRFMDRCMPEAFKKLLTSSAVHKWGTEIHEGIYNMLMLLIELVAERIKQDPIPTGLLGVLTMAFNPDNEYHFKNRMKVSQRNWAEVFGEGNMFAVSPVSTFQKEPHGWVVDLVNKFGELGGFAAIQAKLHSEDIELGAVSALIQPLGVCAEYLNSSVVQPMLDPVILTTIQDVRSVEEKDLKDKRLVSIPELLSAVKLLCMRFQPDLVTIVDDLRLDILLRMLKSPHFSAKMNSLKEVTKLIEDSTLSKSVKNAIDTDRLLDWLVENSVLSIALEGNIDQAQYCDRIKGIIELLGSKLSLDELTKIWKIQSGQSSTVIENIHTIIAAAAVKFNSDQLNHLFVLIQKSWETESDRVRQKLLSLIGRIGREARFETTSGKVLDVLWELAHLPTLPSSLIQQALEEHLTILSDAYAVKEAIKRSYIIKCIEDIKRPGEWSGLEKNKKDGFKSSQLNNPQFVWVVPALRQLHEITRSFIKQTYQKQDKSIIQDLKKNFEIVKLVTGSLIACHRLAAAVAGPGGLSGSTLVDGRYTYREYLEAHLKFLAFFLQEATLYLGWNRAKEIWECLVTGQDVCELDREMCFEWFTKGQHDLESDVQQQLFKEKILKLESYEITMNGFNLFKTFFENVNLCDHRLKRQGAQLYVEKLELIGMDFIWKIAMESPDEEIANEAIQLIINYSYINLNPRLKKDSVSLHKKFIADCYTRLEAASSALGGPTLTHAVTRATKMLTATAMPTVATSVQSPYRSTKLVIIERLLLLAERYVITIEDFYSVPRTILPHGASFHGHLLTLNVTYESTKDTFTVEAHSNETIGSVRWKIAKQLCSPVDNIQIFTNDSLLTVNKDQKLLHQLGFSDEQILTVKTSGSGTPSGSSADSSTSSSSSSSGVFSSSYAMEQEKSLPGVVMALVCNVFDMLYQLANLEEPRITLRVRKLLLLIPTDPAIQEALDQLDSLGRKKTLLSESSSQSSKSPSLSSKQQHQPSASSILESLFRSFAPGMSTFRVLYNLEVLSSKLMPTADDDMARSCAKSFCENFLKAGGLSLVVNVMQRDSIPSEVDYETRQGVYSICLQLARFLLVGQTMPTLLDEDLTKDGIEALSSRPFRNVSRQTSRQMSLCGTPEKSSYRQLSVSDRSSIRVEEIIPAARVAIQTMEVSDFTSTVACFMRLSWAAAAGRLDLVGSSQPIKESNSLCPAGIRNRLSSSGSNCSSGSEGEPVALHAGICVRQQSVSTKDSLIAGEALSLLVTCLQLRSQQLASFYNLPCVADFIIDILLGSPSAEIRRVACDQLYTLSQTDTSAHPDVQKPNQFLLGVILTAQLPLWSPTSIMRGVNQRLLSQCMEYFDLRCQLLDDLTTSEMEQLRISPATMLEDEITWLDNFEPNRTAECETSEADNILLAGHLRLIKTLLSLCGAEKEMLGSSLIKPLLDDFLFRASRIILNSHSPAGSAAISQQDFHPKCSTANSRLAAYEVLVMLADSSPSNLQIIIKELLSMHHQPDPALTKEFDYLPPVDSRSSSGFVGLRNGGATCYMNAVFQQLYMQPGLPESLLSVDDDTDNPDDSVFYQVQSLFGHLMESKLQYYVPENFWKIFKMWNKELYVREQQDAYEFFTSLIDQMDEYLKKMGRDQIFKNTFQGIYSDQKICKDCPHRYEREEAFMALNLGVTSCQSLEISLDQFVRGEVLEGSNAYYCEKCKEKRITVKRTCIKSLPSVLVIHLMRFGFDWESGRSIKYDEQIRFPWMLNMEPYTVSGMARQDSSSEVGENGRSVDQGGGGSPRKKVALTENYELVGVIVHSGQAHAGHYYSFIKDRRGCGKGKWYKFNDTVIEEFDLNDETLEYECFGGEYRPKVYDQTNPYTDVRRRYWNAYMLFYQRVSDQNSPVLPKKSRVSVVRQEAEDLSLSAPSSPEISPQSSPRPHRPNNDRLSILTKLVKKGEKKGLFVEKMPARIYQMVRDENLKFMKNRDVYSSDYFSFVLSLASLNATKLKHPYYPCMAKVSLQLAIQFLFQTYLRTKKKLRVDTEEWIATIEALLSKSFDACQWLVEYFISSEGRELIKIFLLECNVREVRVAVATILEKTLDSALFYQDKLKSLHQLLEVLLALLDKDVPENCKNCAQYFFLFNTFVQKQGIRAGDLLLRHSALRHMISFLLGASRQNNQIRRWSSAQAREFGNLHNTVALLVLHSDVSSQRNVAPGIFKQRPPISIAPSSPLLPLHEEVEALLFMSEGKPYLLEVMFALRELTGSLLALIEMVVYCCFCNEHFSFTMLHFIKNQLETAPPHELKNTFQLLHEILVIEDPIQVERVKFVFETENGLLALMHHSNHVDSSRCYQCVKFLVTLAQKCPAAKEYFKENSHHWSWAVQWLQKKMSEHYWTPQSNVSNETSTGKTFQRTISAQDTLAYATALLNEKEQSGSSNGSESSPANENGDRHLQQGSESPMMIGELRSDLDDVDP
C14orf166, sequence (Q9Y224 whole entry): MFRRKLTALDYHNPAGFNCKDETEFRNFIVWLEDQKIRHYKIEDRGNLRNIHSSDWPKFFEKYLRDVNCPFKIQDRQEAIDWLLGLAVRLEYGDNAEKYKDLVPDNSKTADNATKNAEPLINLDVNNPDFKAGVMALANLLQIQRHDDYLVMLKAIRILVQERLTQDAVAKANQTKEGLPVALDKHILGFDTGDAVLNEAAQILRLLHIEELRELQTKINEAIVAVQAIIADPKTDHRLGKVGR

Cn1c(NC[C@@H](N)Cc2ccccc2)nc(-c2ccncc2)c(-c2ccc3ccccc3c2)c1=O [AMG-548]
EC50 (MYLK): 6.03 nM
Hill slope (MYLK) (MYLK; [3]): 0.44
EC50 (USP24): 2.69 nM
Hill slope (USP24) (USP24; [3]): 0.71
EC50 (MTMR1): 105 nM
Hill slope (MTMR1) (MTMR1; [3]): 0.38

Cc1cnc(Nc2ccc(F)cc2Cl)nc1-c1c[nH]c(C(=O)N[C@H](CO)c2cccc(Cl)c2)c1 [ERK 11e]
Tm (MAPKAPK2p; MAPKAPK2p, living cells): 47.18 °C
ΔTm to DMSO (MAPKAPK2p; MAPKAPK2p, living cells): -1.07 °C
Tm (MAPKAPK2p) (MAPKAPK2p; [4]): 47.18 °C
ΔTm to DMSO (MAPKAPK2p) (MAPKAPK2p; [4]): −1.07 °C
Hill slope (MAPK3; TPP-CCR, living cells, MAPK3): 0.59
Hill slope (MAPK3) (MAPK3; [3]): 0.59

C[S+]([O-])c1ccc(-c2nc(-c3ccncc3)c(-c3ccc(F)cc3)[nH]2)cc1 (stereo not shown) [SB203580]
activity against MAPK8 (MAPK8): inactivity
Hill slope (C14orf166) (C14orf166): 0.33
activity against MAPKAPK2 (MAPKAPK2 [1]): inactivity
activity towards MAPKAPK2 (MAPKAPK2 [2]): inactivity
